According to publication PMC3978495, “Synthesis and Preliminary Evaluation of a 2-Oxoquinoline Carboxylic Acid Derivative for PET Imaging the Cannabinoid Type 2 Receptor” (Pharmaceuticals, 2014):
Like-named read-outs stand apart in the source and are kept apart here.

Legend:
human CB1 (hCB1) = molecular target: T1, human CB1 (hCB1) (Homo sapiens, UniProt P21554); experiment: Competition binding assay with [3H]CP-55,940, membranes of CHO-K1 cells transfected with hCB1; conditions: three independent experiments, [3H]CP-55,940 1.4 nM, read-out: binding affinity (Ki) towards CB1
T1 construct: purchased PerkinElmer, Waltham, MA, USA; host or cells: CHO-K1 cells (stably transfected), membrane preparation
Method: All samples were prepared in triplicates.

hCB2 = conditions: reported data; read-out: reported binding affinity towards human CB2; cited from earlier work
hCB1 = conditions: reported data; read-out: reported binding affinity towards CB1; cited from earlier work
human CB2 (hCB2) = human CB2 (hCB2) (Homo sapiens, UniProt P34972); experiment: Competition binding assay with [3H]CP-55,940, membranes of CHO-K1 cells transfected with hCB2
Method: Frozen membrane preparations from CHO-K1 cells transfected with human CB1 (hCB1) and CB2 (hCB2), respectively (PerkinElmer, Waltham, MA, USA), were thawed on ice and diluted to a final protein concentration of 1 µg/mL in assay buffer (50 mM TRIS/HCl, 1 mM EDTA (Applichem, Darmstadt, Germany), 3 mM MgCl2, pH 7.4, containing 0.05% bovine serum albumin, BSA). […] All samples were prepared in triplicates. After 90 min, 3 mL ice cold assay buffer was added and samples were immediately filtered through Whatman GF/C filters (pre-soaked in 0.05% polyethylenimine) and washed twice with 3 mL ice cold assay buffer.

CB2 in rat spleen slices = molecular target: T2, CB2 in rat spleen slices (Rattus norvegicus, UniProt Q9QZN9); experiment: In vitro autoradiography on rat spleen slices; assay type: binding
T2 construct: performed on 20 µm tissue slices (rat/mouse spleen) adsorbed to SuperFrost Plus slides; from tissue; host or cells: rat spleen slices (20 µm)
T2 sequence (Q9QZN9 1-360): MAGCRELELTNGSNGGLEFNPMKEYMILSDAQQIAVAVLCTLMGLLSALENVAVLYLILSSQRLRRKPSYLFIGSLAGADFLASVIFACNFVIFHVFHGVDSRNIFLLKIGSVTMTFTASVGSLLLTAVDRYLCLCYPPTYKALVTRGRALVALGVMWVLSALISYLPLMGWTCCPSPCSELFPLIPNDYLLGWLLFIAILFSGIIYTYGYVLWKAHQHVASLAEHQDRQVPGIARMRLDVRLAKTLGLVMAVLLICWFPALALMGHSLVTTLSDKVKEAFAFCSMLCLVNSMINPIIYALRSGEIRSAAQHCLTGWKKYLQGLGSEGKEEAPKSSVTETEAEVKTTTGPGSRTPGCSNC
Method: (§1) In vitro autoradiography with [^11C]KP23 was performed on 20 µm tissue slices (rat/mouse spleen) adsorbed to SuperFrost Plus slides. Slices were thawed (10 min) on ice before pre-incubation with incubation buffer (50 mM TRIS/HCl, pH 7.4, containing 5% BSA) at 4 °C for 10 min. Excess solution was carefully removed and the tissue slices were dried in a ventilated hood for 10 min. Then slides were incubated with 0.6 or 0.2 nM [^11C]KP23 alone or together with specific CB2 agonist (GW405833, 1 µM) in incubation buffer. After incubation for 15 min at RT in a humid chamber, slides were washed twice with ice cold washing buffer (50 mM TRIS/HCl, pH 7.4, 1% BSA, 5% EtOH) for 2 min each and dipped twice in water. Dried slides were exposed to a phosphor imager plate for 30 min and the plate was scanned in a BAS5000 reader (Fujifilm, Dielsdorf, Switzerland).

[1] = molecular target: T3, CB2 in mouse spleen slices (Mus musculus, UniProt P47936); experiment: In vitro autoradiography on mouse spleen slices; assay type: binding
T3 construct: performed on 20 µm tissue slices (rat/mouse spleen) adsorbed to SuperFrost Plus slides; from tissue; host or cells: mouse spleen slices (20 µm)
Method: as §1

[2] = In vitro stability in phosphate buffer (PBS); assay type: physicochemical; conditions: PBS pH 7.4, 37 °C, 40 min
Method: (§2) To test the plasma stability of the radioligand, 10 µL (4 MBq) of [^11C]KP23 solution were added to phosphate buffer (300 µL, 4 mM NaH2PO4/Na2HPO4, 155 mM NaCl, pH 7.4), mouse and rat plasma (300 µL), respectively. The mixture was vortexed and four aliquots of 70 µL were incubated at 37 °C. Ice cold acetonitrile (100 µL) was added to stop the enzymatic reactions at different time points (0, 10, 20 and 40 min). After centrifugation (10,000 g, 3 min), the supernatant was passed through a filter (0.45 µm, Minisart SRP 4, Sartorius Stedim Biotech, Goettingen, Germany) and analyzed by UPLC.

[3] = In vitro stability in mouse plasma; assay type: in vitro ADME; conditions: 37 °C, 40 min
Method: as §2

[4] = In vitro stability in rat plasma; assay type: in vitro ADME; conditions: 37 °C, 40 min
Method: as §2

[5] = In vivo dynamic PET imaging in Wistar rats; parameters: species or system rat
Method: PET scanning was performed with the GE VISTA eXplore PET/CT tomograph (Sedecal, Madrid, Spain). The scanner is characterized by high sensitivity (absolute central point source sensitivity of 4% for the […] energy windows) and an axial field of view of 4.8 cm. Male Wistar rats (278 ± 2 g, n = 2) were immobilized by isoflurane inhalation and the tracer was injected into a tail vein on the tomographic bed. Tracer accumulation in the spleen or brain were recorded by dynamic one-bed position PET scans over 60 min starting with the injection of 13 respectively 40 MBq (0.05 to 0.15 nmol) of [^11C]KP23. PET data was reconstructed by 3-dimensional FORE/2-dimensional OSEM in user-defined time frames with a voxel size of 0.3875 × 0.3875 × 0.775 mm. Singles and random corrections but no attenuation correction were applied. Image files were evaluated with the software PMOD v3.4 (PMOD Technologies Inc., Zurich, Switzerland). Time activity curves (TACs) of brain regions were generated with the implemented rat brain region of interest (ROI) template and TACs of the abdominal region with the respective ROIs generated by the PMOD segmentation tool. Spleen, liver and background TACs were confirmed by analysis of manually drawn regions of interest. Standardized uptake values (SUV) were calculated as tissue activities (Bq/cm^3), normalized to the injected dose per body weight (Bq/g).

[6] = rat, in vivo, iv; for percentage of parent tracer radioactivity in blood plasma: Wistar
Method: [^11C]KP23 was administered intravenously to a restrained Wistar rat (413 g) by tail vein injection (ca. 160 MBq). The animal was sacrificed by decapitation 30 min p.i. and blood and urine were collected. Whole blood was collected in heparin-coated tubes (BD Vacutainers, Plymouth, UK) and centrifuged at 5,000 g for 5 min, 4 °C. The proteins of the supernatant plasma and urine were precipitated by addition of an equal volume of acetonitrile and centrifuged at 5,000 g for another 5 min. The supernatants were filtered and analyzed by UPLC. For the determination of in vivo radiometabolites at 15 min p.i. blood samples were withdrawn from the tail vein opposite to the injection site.

T3 sequence (P47936 whole entry): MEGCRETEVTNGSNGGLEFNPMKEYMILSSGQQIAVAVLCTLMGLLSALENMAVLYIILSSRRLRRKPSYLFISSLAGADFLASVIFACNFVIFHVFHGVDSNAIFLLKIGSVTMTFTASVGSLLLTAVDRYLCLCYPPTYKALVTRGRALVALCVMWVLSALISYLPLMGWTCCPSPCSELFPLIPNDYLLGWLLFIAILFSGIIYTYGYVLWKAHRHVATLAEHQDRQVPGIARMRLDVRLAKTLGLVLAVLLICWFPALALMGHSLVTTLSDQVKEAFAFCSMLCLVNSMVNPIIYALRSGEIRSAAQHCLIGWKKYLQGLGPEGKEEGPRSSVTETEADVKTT
Sequence of human CB2 (hCB2) (P34972 whole entry): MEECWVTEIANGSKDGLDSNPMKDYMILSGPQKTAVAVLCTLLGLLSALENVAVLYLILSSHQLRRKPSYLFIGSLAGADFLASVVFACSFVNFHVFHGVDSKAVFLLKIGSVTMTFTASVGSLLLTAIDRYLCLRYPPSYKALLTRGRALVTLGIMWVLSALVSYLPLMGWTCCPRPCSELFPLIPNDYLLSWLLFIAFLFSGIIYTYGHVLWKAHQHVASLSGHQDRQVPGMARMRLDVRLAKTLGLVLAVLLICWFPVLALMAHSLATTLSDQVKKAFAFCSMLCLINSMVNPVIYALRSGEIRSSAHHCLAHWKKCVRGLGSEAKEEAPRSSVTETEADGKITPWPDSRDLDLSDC
T1 sequence (P21554 whole entry): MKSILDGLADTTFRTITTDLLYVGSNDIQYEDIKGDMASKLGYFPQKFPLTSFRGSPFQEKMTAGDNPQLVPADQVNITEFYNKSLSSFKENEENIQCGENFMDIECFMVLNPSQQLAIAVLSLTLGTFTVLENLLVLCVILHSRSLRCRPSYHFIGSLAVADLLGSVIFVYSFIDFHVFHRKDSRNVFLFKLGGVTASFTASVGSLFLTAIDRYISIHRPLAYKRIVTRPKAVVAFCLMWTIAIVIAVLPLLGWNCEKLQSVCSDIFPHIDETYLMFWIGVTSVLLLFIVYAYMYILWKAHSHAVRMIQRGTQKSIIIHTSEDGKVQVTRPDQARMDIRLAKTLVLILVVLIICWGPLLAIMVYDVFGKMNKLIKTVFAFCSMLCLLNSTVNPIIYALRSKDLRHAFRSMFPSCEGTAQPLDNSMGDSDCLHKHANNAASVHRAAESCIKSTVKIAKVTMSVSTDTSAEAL

Structure (SMILES)	Ki (human CB1 (hCB1)) [µM]	Ki (hCB2) [nM]	Ki (hCB1) [µM]	Ki (human CB2 (hCB2)) [nM]	non-specific binding in spleen tissue (CB2 in rat spleen slices; rat spleen slices (Figure 1 A2), with 1 μM GW4058233)	binding to CB2 in autoradiography (CB2 in rat spleen slices; rat spleen slices, 0.6 nM tracer, blocked by excess (1 μM) GW4058233)	non-specific binding in spleen tissue ([1]; mouse spleen slices (Figure 1 B2), with 1 μM GW4058233)	binding to CB2 in autoradiography ([1]; mouse spleen slices, 0.6 nM tracer, blocked by excess (1 μM) GW4058233)	stability (radioactive degradation products) [2]	plasma stability (radioactive degradation products) [3]	plasma stability (radioactive degradation products) [4]	brain uptake ([5]; healthy Wistar rat, i.v., PET, region of interest TAC analysis)	initial period of steadily increasing activity concentration in spleen, then slow washout ([5]; male, Wistar, rat, in vivo, iv) [min p.i.]	time of radioactivity peak in liver ([5]; male, Wistar, rat, in vivo, iv)	spleen uptake ([5]; rat, in vivo, iv)	percentage of parent tracer radioactivity in blood plasma ([6]; 15 min) [%]	percentage of parent tracer radioactivity in blood plasma ([6]; 30 min) [%]	number of radiometabolites in blood plasma (more hydrophilic than parent) [6]
CCCCOc1c(OC)ccc2cc(C(=O)NCC(F)c3ccccc3)c(=O)[nH]c12 (stereo not drawn) [KP23, 8-butoxy-N-(2-fluoro-2-phenylethyl)-7-methoxy-2-oxo-1,2-dihydroquinoline-3-carboxamide]	> 10	0.8 ± 0.3	> 10	6.8 ± 5.8	–	–	–	–	–	–	–	–	–	–	–	–	–	–
CCCCOc1c(O[11CH3])ccc2cc(C(=O)NCC(F)c3ccccc3)c(=O)[nH]c12 (stereo not drawn) [[^11C]KP23]	–	–	–	–	relatively high non-specific binding	specific binding	relatively high non-specific binding	specific binding	No radioactive degradation products	No radioactive degradation products	No radioactive degradation products	low uptake	8	around 4 min p.i.	high spleen uptake	40	25	two to three
